Experimental data as given in article PMC10018608 (Signal Transduction and Targeted Therapy, 2023).
Where two headings read alike, the source gives them in different places.

Columns and labels:
[1] = in vitro; format: in vitro ADME; settings: human, microsomes, HLM 0.5 mg/mL, 1 μM; for remaining at 0 h: 0 min, read-out: Percent Remaining (%) 0 min; for remaining at 0 h / remaining at 5 min / remaining at […] / remaining at 0.5 h / remaining at 0.75 h / remaining at 1 h: Mean; for remaining at 5 min: read-out: Percent Remaining (%) 5 min; for remaining at […]: 15 min, read-out: Percent Remaining (%) 15 min; for remaining at 0.5 h: 30 min, read-out: Percent Remaining (%) 30 min; for remaining at 0.75 h: 45 min, read-out: Percent Remaining (%) 45 min; for remaining at 1 h: 60 min, read-out: Percent Remaining (%) 60 min; for CLint scaled: scaling factor 1254.2
[2] = in vitro; format: cell-based
Method: Cells were seeded and grown in 96 well plates overnight. Then various concentrations of compounds in fresh medium were added and incubated for 72 h. Using MTT (Sigma) assay to determine the cell viability.

[3] = SD rats
[4] = in vivo; settings: male, Sprague-Dawley, rat
[5] = test system: SARS-CoV-2 (BA.5); experiment: microbe, parasite or virus in culture; format: cell-based; settings: Severe acute respiratory syndrome coronavirus 2, VeroE6-TMPRSS2, read-out: EC50 (plaque reduction)
[6] = test system: SARS-CoV-2 (BA.2); experiment: Plaque reduction assay in VeroE6-TMPRSS2; format: cell-based; settings: Severe acute respiratory syndrome coronavirus 2
[7] = test system: SARS-CoV-2 (B.1.1.7); experiment: Plaque reduction assay in VeroE6-TMPRSS2; format: cell-based; settings: Severe acute respiratory syndrome coronavirus 2
[8] = test system: SARS-CoV-2 (B.1.351); experiment: Plaque reduction assay in VeroE6-TMPRSS2; format: cell-based; settings: Severe acute respiratory syndrome coronavirus 2
[9] = test system: SARS-CoV-1; experiment: microbe, parasite or virus in culture; format: cell-based; settings: Severe acute respiratory syndrome coronavirus, VeroE6/TMPRSS2, read-out: EC50 (plaque reduction)
[10] = test system: MERS-CoV; experiment: microbe, parasite or virus in culture; format: cell-based; settings: Middle East respiratory syndrome-related coronavirus, VeroE6/TMPRSS2, read-out: EC50 (plaque reduction)
[11] = in vitro; format: in vitro ADME, human; settings: human, plasma
[12] = African green monkey, VeroE6, MTT, 72 h

Row | SMILES | half-life [1] [h] | remaining at 0 h [1] [%] | remaining at 5 min [1] [%] | remaining at […] [1] [%] | remaining at 0.5 h [1] [%] | remaining at 0.75 h [1] [%] | remaining at 1 h [1] [%] | CLint scaled [1] [mL/min/kg] | CC50 [2, 12] [µM] | CC50 ([2]; human, BEAS-2B, MTT, 72 h) [µM] | CC50 ([2]; human, HUVEC, MTT, 72 h) [µM] | MTRlast ([3]; i.v. (1 mg/kg)) [h] | Vzobs ([3]; i.v. (1 mg/kg)) [L/kg] | MTRlast ([3]; p.o. (10 mg/kg)) [h] | AUC(0-inf) ([4]; iv, 1 mg/kg) [ng·h/mL] | AUC(0-t) ([4]; iv, 1 mg/kg) [ng·h/mL] | Cmax ([4]; iv, 1 mg/kg) [ng/mL] | Tmax ([4]; iv, 1 mg/kg) [h] | clearance ([4]; iv, 1 mg/kg) [mL/min/kg] | half-life ([4]; iv, 1 mg/kg) [h] | other results
1 | C[C@@H](NC(=O)C1CCC(F)(F)C1)C(=O)N[C@H](Cc1ccccc1)C(=O)C(=O)NCc1nccs1 (some centres unmarked) [3t] | 0.704 | 100 | 89.1 | 73.5 | 56.2 | 46.2 | 37 | 41.2 | > 500 | > 500 | > 500 | 1.26 ± 0.42 | 2.49 ± 1.61 | 5.90 ± 0.79 | 1330 ± 556 | 1290 ± 531 | 1320 ± 168 | 0.08 | 14.5 ± 7.25 | 1.9 ± 0.27 | AUC(0-inf) ([4]; po, 10 mg/kg): 6900 ± 2620 ng·h/mL; AUC(0-t) ([4]; po, 10 mg/kg): 6720 ± 2460 ng·h/mL; Cmax ([4]; po, 10 mg/kg): 635 ± 161 ng/mL; Tmax ([4]; po, 10 mg/kg): 1.67 ± 0.58 h; bioavailability ([4]; po, 10 mg/kg): 52 ± 19.1%; half-life ([4]; po, 10 mg/kg): 4.15 ± 1.48 h
2 | C[C@@H](NC(=O)C1CCCC(F)(F)C1)C(=O)N[C@H](Cc1ccccc1)C(=O)C(=O)NCc1nccs1 (some centres unmarked) [3s] | 0.424 | 100 | 81.7 | 64.2 | 42 | 28.4 | 18.9 | 68.4 | – | – | – | – | – | – | – | – | – | – | – | – | –
3 | COC[C@@H](NC(=O)C1CCC(F)(F)CC1)C(=O)N[C@H](Cc1ccccc1)C(=O)C(=O)NCc1nccs1 [3v] | 0.65 | 100 | 88.3 | 73.2 | 54.5 | 42.3 | 34.7 | 44.6 | 132 ± 19.8 | 159 ± 4.34 | 129 ± 13.4 | 3.55 ± 0.52 | 5.25 ± 2.13 | 7.63 ± 0.57 | 2830 ± 959 | 2570 ± 820 | 1700 ± 237 | 0.08 | 6.48 ± 2.63 | 9.49 ± 2.16 | CC50 ([2]; human (BEAS-2B, African green monkey (VeroE6)), across BEAS-2B, VeroE6, and HUVEC cells, MTT): 129 to 159 µM; AUC(0-inf) ([4]; po, 10 mg/kg): 14000 ± 783 ng·h/mL; AUC(0-t) ([4]; po, 10 mg/kg): 12700 ± 1270 ng·h/mL; Cmax ([4]; po, 10 mg/kg): 1010 ± 115 ng/mL; Tmax ([4]; po, 10 mg/kg): 4 h; bioavailability ([4]; po, 10 mg/kg): 49.2 ± 4.92%; half-life ([4]; po, 10 mg/kg): 6.64 ± 1.17 h
4 | C[C@@H](NC(=O)C1CCC(F)(F)CC1)C(=O)N[C@H](Cc1ccccc1)C(=O)C(=O)NCc1nccs1 [3r] | 0.594 | 100 | 91.5 | 73.2 | 51 | 39.1 | 32.5 | 48.8 | > 500 | > 500 | > 500 | 1.31 ± 0.54 | 3.05 ± 2.08 | 4.89 ± 1.14 | 1020 ± 262 | 1010 ± 258 | 1110 ± 70 | 0.08 | 17 ± 3.8 | 2.41 ± 2.24 | AUC(0-inf) ([4]; po, 10 mg/kg): 2840 ± 327 ng·h/mL; AUC(0-t) ([4]; po, 10 mg/kg): 2570 ± 679 ng·h/mL; Cmax ([4]; po, 10 mg/kg): 306 ± 32.1 ng/mL; Tmax ([4]; po, 10 mg/kg): 2.67 ± 1.15 h; bioavailability ([4]; po, 10 mg/kg): 25.4 ± 6.71%; half-life ([4]; po, 10 mg/kg): 3.01 ± 0.91 h
5 | COC[C@@H](NC(=O)CC1CC(F)(F)C1)C(=O)N[C@H](Cc1ccccc1)C(=O)C(=O)NCc1nccs1 [3x] | 0.507 | 100 | 91.1 | 71.5 | 50.5 | 34.3 | 26.5 | 57.2 | > 500 | > 500 | > 500 | 3.18 ± 0.53 | 3.28 ± 1.17 | 6.47 ± 0.50 | 2390 ± 645 | 2360 ± 639 | 1350 ± 116 | 0.08 | 7.3 ± 1.9 | 5.09 ± 0.57 | AUC(0-inf) ([4]; po, 10 mg/kg): 11200 ± 364 ng·h/mL; AUC(0-t) ([4]; po, 10 mg/kg): 10800 ± 124 ng·h/mL; Cmax ([4]; po, 10 mg/kg): 806 ± 75.4 ng/mL; Tmax ([4]; po, 10 mg/kg): 2 h; bioavailability ([4]; po, 10 mg/kg): 45.8 ± 0.52%; half-life ([4]; po, 10 mg/kg): 4.67 ± 1.04 h
6 | O=C(c1ccc(F)cc1)C1CCN(CCn2c(=O)[nH]c3ccccc3c2=O)CC1 [Ketanserin, reference compound] | 0.373 | – | 86.9 | 62.2 | 38.1 | 24.4 | 15.9 | 77.6 | – | – | – | – | – | – | – | – | – | – | – | – | –
7 | CC(C)(C)[C@H](NC(=O)C(F)(F)F)C(=O)N1C[C@H]2[C@@H]([C@H]1C(=O)N[C@H](C#N)C[C@@H]1CCNC1=O)C2(C)C [Nirmatrelvir, reference compound] | 0.407 | 100 | 86.5 | 60 | 38.7 | 26 | 18.6 | 71.2 | – | – | – | – | – | – | – | – | – | – | – | – | EC50 [5]: 5.05 µM; EC50 [6]: 1.08 µM; EC50 [7]: 49.4 µM; EC50 [8]: 28.8 µM; EC50 [9]: 7.66 µM; EC50 [10]: 11.3 µM
8 | O=C(CC1CC(F)(F)C1)NCC(=O)N[C@H](Cc1ccccc1)C(=O)C(=O)NCc1nccs1 [3q] | 0.426 | 100 | 86 | 63.1 | 40.1 | 30.3 | 19.1 | 68.1 | – | – | – | – | – | – | – | – | – | – | – | – | –
9 | CC(=O)CC(c1ccccc1)c1c(O)c2ccccc2oc1=O (centres unmarked) [Warfarin, reference compound] | – | – | – | – | – | – | – | – | – | – | – | – | – | – | – | – | – | – | – | – | fraction unbound [11]: 0.009
10 | C[C@@H](NC(=O)CC1CC(F)(F)C1)C(=O)N[C@H](Cc1ccccc1)C(=O)C(=O)NCc1nccs1 [3u] | – | – | – | – | – | – | – | – | > 500 | > 500 | > 500 | 3.19 ± 0.31 | 3.65 ± 0.74 | 6.57 ± 0.38 | 2250 ± 672 | 2200 ± 634 | 1570 ± 201 | 0.08 | 7.95 ± 2.8 | 5.47 ± 0.77 | AUC(0-inf) ([4]; po, 10 mg/kg): 8700 ± 1120 ng·h/mL; AUC(0-t) ([4]; po, 10 mg/kg): 8180 ± 795 ng·h/mL; Cmax ([4]; po, 10 mg/kg): 735 ± 102 ng/mL; Tmax ([4]; po, 10 mg/kg): 1.33 ± 0.58 h; bioavailability ([4]; po, 10 mg/kg): 37.2 ± 3.62%; half-life ([4]; po, 10 mg/kg): 5.84 ± 1.3 h
